Assay results reported in patent US20030224942A1, “Alkylamino-1,3,5-triazines, processes for their preparation and their use as herbicides and plant growth regulators” (priority 2001, published 2003).

Columns and labels:
[1] = tested on: Cyperus spp., Echinochloa spp., Digitaria spp., Sagitaria spp. and Scirpus spp.; assay: Action on harmful plants in rice (paddy rice conditions, visual scoring); type: in vivo, typical rice weeds (gramineous and broad-leaved); conditions: applied into the dammed water, visual scoring about three weeks after application
In short: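 Under paddy conditions with 2-3 cm dammed water, transplanted and sown rice plus weeds were treated at three-leaf stage (E. crus-galli at 1.5 leaves). Pots stayed in greenhouse under optimum growth conditions for the test period, with visual assessment of damage.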

[2] = tested on: Chenopodium spp., Papaver spp., Polygonum spp., Veronica spp. or Viola spp.; assay: Post-emergence effect on weeds (greenhouse pot test, visual scoring); type: in vivo, monocotyledonous and dicotyledonous weeds; conditions: treated at three-leaf stage; visual scoring after about 3 to 4 weeks; application rate of 0.5 kg and less of active substance per hectare

Structure (SMILES)	herbicidal activity against harmful plants which are typical for rice crops [1]	herbicidal activity post-emergence against harmful plants [2]
C#Cc1c(F)cc(CNc2nc(N)nc(C(F)CC)n2)cc1F (stereo not shown) [Product P26.352]	very good herbicidal activity	very good herbicidal activity
CC#Cc1cc(CNc2nc(N)nc(C(F)CC)n2)ccc1F (stereo not shown) [Product P26.384]	very good herbicidal activity	very good herbicidal activity
CC#Cc1c(F)cc(CNc2nc(N)nc(C(F)CC)n2)cc1F (stereo not shown) [Product P26.428]	very good herbicidal activity	very good herbicidal activity
CCC(F)c1nc(N)nc(NCc2ccc(F)c(C3CC3)c2)n1 (stereo not shown) [Product P26.916]	very good herbicidal activity	very good herbicidal activity
CCC(F)c1nc(N)nc(NCc2cc(F)c(C3CC3)c(F)c2)n1 (stereo not shown) [Product P26.960]	very good herbicidal activity	very good herbicidal activity
CCC(F)c1nc(N)nc(NCc2cccc(C(F)=C(F)F)c2)n1 (stereo not shown) [Product P26.1567]	very good herbicidal activity	very good herbicidal activity
CCC(F)c1nc(N)nc(NCc2ccc(C(F)=C(F)F)cc2)n1 (stereo not shown) [Product P26.1568]	very good herbicidal activity	very good herbicidal activity
C#Cc1cccc(CNc2nc(N)nc(C(F)CC)n2)c1 (stereo not shown) [Product P26.1579]	very good herbicidal activity	very good herbicidal activity
C#Cc1ccc(CNc2nc(N)nc(C(F)CC)n2)cc1 (stereo not shown) [Product P26.1580]	very good herbicidal activity	very good herbicidal activity
CC#Cc1cccc(CNc2nc(N)nc(C(F)CC)n2)c1 (stereo not shown) [Product P26.1582]	very good herbicidal activity	very good herbicidal activity
CC#Cc1ccc(CNc2nc(N)nc(C(F)CC)n2)cc1 (stereo not shown) [Product P26.1583]	very good herbicidal activity	very good herbicidal activity
CCC(F)c1nc(N)nc(NCc2cccc(C3CC3)c2)n1 (stereo not shown) [Product P26.1603]	very good herbicidal activity	very good herbicidal activity
CCC(F)c1nc(N)nc(NCc2ccc(C3CC3)cc2)n1 (stereo not shown) [Product P26.1604]	very good herbicidal activity	very good herbicidal activity
CCC(F)c1nc(N)nc(NC(C)c2ccc(F)c(C(F)=C(F)F)c2)n1 (stereo not shown) [Product P27.5]	very good herbicidal activity	very good herbicidal activity
CCC(F)c1nc(N)nc(NC(C)c2cc(F)c(C(F)=C(F)F)c(F)c2)n1 (stereo not shown) [Product P27.49]	very good herbicidal activity	very good herbicidal activity
C#Cc1cc(C(C)Nc2nc(N)nc(C(F)CC)n2)ccc1F (stereo not shown) [Product P27.309]	very good herbicidal activity	very good herbicidal activity
C#Cc1ccc(C(C)Nc2nc(N)nc(C(F)CC)n2)cc1C (stereo not shown) [Product P27.335]	very good herbicidal activity	very good herbicidal activity
C#Cc1c(F)cc(C(C)Nc2nc(N)nc(C(F)CC)n2)cc1F (stereo not shown) [Product P27.352]	very good herbicidal activity	very good herbicidal activity
CC#Cc1cc(C(C)Nc2nc(N)nc(C(F)CC)n2)ccc1F (stereo not shown) [Product P27.384]	very good herbicidal activity	very good herbicidal activity
CC#Cc1c(F)cc(C(C)Nc2nc(N)nc(C(F)CC)n2)cc1F (stereo not shown) [Product P27.428]	very good herbicidal activity	very good herbicidal activity
CCC(F)c1nc(N)nc(NC(C)c2ccc(F)c(C#CC(C)O)c2)n1 (stereo not shown) [Product P27.840]	very good herbicidal activity	very good herbicidal activity

Structure (SMILES)	herbicidal activity against harmful plants which are typical for rice crops [1]	herbicidal activity post-emergence against harmful plants [2]
CCC(F)c1nc(N)nc(NC(C)c2ccc(F)c(C3CC3)c2)n1 (stereo not shown) [Product P27.916]	very good herbicidal activity	very good herbicidal activity
CCC(F)c1nc(N)nc(NC(C)c2cc(F)c(C3CC3)c(F)c2)n1 (stereo not shown) [Product P27.960]	very good herbicidal activity	very good herbicidal activity
CCC(F)c1nc(N)nc(NC(C)c2cccc(C(F)=C(F)F)c2)n1 (stereo not shown) [Product P27.1567]	very good herbicidal activity	very good herbicidal activity
CCC(F)c1nc(N)nc(NC(C)c2ccc(C(F)=C(F)F)cc2)n1 (stereo not shown) [Product P27.1568]	very good herbicidal activity	very good herbicidal activity
C#Cc1cccc(C(C)Nc2nc(N)nc(C(F)CC)n2)c1 (stereo not shown) [Product P27.1579]	very good herbicidal activity	very good herbicidal activity
C#Cc1ccc(C(C)Nc2nc(N)nc(C(F)CC)n2)cc1 (stereo not shown) [Product P27.1580]	very good herbicidal activity	very good herbicidal activity
CC#Cc1cccc(C(C)Nc2nc(N)nc(C(F)CC)n2)c1 (stereo not shown) [Product P27.1582]	very good herbicidal activity	very good herbicidal activity
CC#Cc1ccc(C(C)Nc2nc(N)nc(C(F)CC)n2)cc1 (stereo not shown) [Product P27.1583]	very good herbicidal activity	very good herbicidal activity
CCC(F)c1nc(N)nc(NC(C)c2cccc(C#CC(C)O)c2)n1 (stereo not shown) [Product P27.1600]	very good herbicidal activity	very good herbicidal activity
CCC(F)c1nc(N)nc(NC(C)c2ccc(C#CC(C)O)cc2)n1 (stereo not shown) [Product P27.1601]	very good herbicidal activity	very good herbicidal activity
CCC(F)c1nc(N)nc(NC(C)c2cccc(C3CC3)c2)n1 (stereo not shown) [Product P27.1603]	very good herbicidal activity	very good herbicidal activity
CCC(F)c1nc(N)nc(NC(C)c2ccc(C3CC3)cc2)n1 (stereo not shown) [Product P27.1604]	very good herbicidal activity	very good herbicidal activity
C#Cc1cc(C(Nc2nc(N)nc(C(F)CC)n2)C2CC2)ccc1F (stereo not shown) [Product P29.309]	very good herbicidal activity	very good herbicidal activity
C#Cc1c(F)cc(C(Nc2nc(N)nc(C(F)CC)n2)C2CC2)cc1F (stereo not shown) [Product P29.352]	very good herbicidal activity	very good herbicidal activity
CC#Cc1cc(C(Nc2nc(N)nc(C(F)CC)n2)C2CC2)ccc1F (stereo not shown) [Product P29.384]	very good herbicidal activity	very good herbicidal activity
CC#Cc1c(F)cc(C(Nc2nc(N)nc(C(F)CC)n2)C2CC2)cc1F (stereo not shown) [Product P29.428]	very good herbicidal activity	very good herbicidal activity
CCC(F)c1nc(N)nc(NC(c2cccc(C(F)=C(F)F)c2)C2CC2)n1 (stereo not shown) [Product P29.1567]	very good herbicidal activity	very good herbicidal activity
CCC(F)c1nc(N)nc(NC(c2ccc(C(F)=C(F)F)cc2)C2CC2)n1 (stereo not shown) [Product P29.1568]	very good herbicidal activity	very good herbicidal activity
C#Cc1cccc(C(Nc2nc(N)nc(C(F)CC)n2)C2CC2)c1 (stereo not shown) [Product P29.1579]	very good herbicidal activity	very good herbicidal activity
C#Cc1ccc(C(Nc2nc(N)nc(C(F)CC)n2)C2CC2)cc1 (stereo not shown) [Product P29.1580]	very good herbicidal activity	very good herbicidal activity
